According to ChEMBL document CHEMBL1201862, “PubChem BioAssay data set” (2004):
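Step 1: Grow cells in 96-well plates. Step 2: Expose to compound for 48 hours at 5 concentrations. Step 3: Interpolate endpoints linearly; if unreached, use highest concentration. Here, GI50 denotes the concentration required for 50% inhibition of growth.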 The source made the active and inactive calls. Rule as the data show it: active = GI50 up to about 1.1 µM and inactive = higher.

How the values were obtained:
Assay in all cases: inhibition of tumour cell growth, NCI panel, 48 h
[1] = tested on: TK-10
[2] = tested on: NCI/ADR-RES
[3] = tested on: SF-539
[4] = tested on: A498
[5] = tested on: SK-MEL-2
[6] = tested on: HCT-116
[7] = tested on: MDA-MB-435
[8] = tested on: OVCAR-3
[9] = tested on: SNB-75
[10] = tested on: RXF 393
[11] = tested on: Hs-578T
[12] = tested on: COLO 205
[13] = tested on: DU-145
[14] = tested on: SW-620
[15] = tested on: NCI-H460
[16] = tested on: K562
[17] = tested on: MOLT-4
[18] = tested on: HOP-62
[19] = tested on: HCT-15
[20] = tested on: NCI-H23
[21] = tested on: UACC-62
[22] = tested on: OVCAR-8
[23] = tested on: UACC-257
[24] = tested on: NCI-H226
[25] = tested on: CAKI-1
[26] = tested on: MCF7
[27] = tested on: ACHN
[28] = tested on: SK-MEL-28
[29] = tested on: CCRF-CEM
[30] = tested on: Malme-3M
[31] = tested on: KM12
[32] = tested on: SF-295
[33] = tested on: HT-29
[34] = tested on: MDA-MB-231
[35] = tested on: SF-268
[36] = tested on: RPMI-8226
[37] = tested on: M14
[38] = tested on: SK-OV-3
[39] = tested on: SK-MEL-5
[40] = tested on: 786-0
[41] = tested on: PC-3
[42] = tested on: BT-549
[43] = tested on: HCC 2998
[44] = tested on: HL-60
[45] = tested on: SN12C
[46] = tested on: A549
[47] = tested on: OVCAR-5
[48] = tested on: U-251
[49] = tested on: OVCAR-4
[50] = tested on: NCI-H522
[51] = tested on: SNB-19
[52] = tested on: MDA-N
[53] = tested on: T47D
[54] = tested on: IGROV-1
[55] = tested on: EKVX
[56] = tested on: LOX IMVI
[57] = tested on: HOP-92
[58] = tested on: SR
[59] = tested on: UO-31

**Q.** Which GI50 [1] does the source give for O=c1[nH]nc(Cc2ccc(Cl)cc2)n1/N=C/c1ccc([N+](=O)[O-])o1 here?
**A.** 4.27 µM (inactive)

**Q.** What about the GI50 [2] of the same compound?
**A.** 3.16 µM (inactive)

**Q.** What about the GI50 [3] of the same compound?
**A.** 2.21 µM (inactive)

**Q.** What about the GI50 [4] of the same compound?
**A.** 5.7 µM (inactive)

**Q.** And the GI50 [5]?
**A.** 3.38 µM (inactive)

**Q.** And the GI50 [6]?
**A.** 1.29 µM (inactive)

**Q.** And the GI50 [7]?
**A.** 2.4 µM (inactive)

**Q.** What about the GI50 [8] of the same compound?
**A.** 0.53 µM (active)

**Q.** What about the GI50 [9] of the same compound?
**A.** 7.13 µM (inactive)

**Q.** What about the GI50 [10] of the same compound?
**A.** 1.56 µM (inactive)

**Q.** What about the GI50 [11] of the same compound?
**A.** 2.25 µM (inactive)

**Q.** And the GI50 [12]?
**A.** 1.84 µM (inactive)

**Q.** And the GI50 [13]?
**A.** 3.64 µM (inactive)

**Q.** And the GI50 [14]?
**A.** 2.92 µM (inactive)

**Q.** And the GI50 [15]?
**A.** 3.4 µM (inactive)

**Q.** What about the GI50 [16] of the same compound?
**A.** 2.58 µM (inactive)

**Q.** And the GI50 [17]?
**A.** 1.55 µM (inactive)

**Q.** What about the GI50 [18] of the same compound?
**A.** 2.77 µM (inactive)

**Q.** And the GI50 [19]?
**A.** 2.21 µM

**Q.** And the GI50 [20]?
**A.** 3.34 µM (inactive)

**Q.** And the GI50 [21]?
**A.** 2.87 µM (inactive)

**Q.** And the GI50 [22]?
**A.** 1.99 µM (inactive)

**Q.** What about the GI50 [23] of the same compound?
**A.** 2.77 µM (inactive)

**Q.** What about the GI50 [24] of the same compound?
**A.** 9.18 µM (inactive)

**Q.** And the GI50 [25]?
**A.** 3.24 µM (inactive)

**Q.** What about the GI50 [26] of the same compound?
**A.** 1.75 µM (inactive)

**Q.** What about the GI50 [27] of the same compound?
**A.** 2.12 µM (inactive)

**Q.** And the GI50 [28]?
**A.** 3.03 µM (inactive)

**Q.** What about the GI50 [29] of the same compound?
**A.** 1.76 µM (inactive)

**Q.** What about the GI50 [30] of the same compound?
**A.** 1.46 µM (inactive)

**Q.** What about the GI50 [31] of the same compound?
**A.** 2.03 µM (inactive)

**Q.** What about the GI50 [32] of the same compound?
**A.** 2.77 µM (inactive)

**Q.** And the GI50 [33]?
**A.** 2.21 µM (inactive)

**Q.** What about the GI50 [34] of the same compound?
**A.** 3.38 µM (inactive)

**Q.** And the GI50 [35]?
**A.** 2.25 µM (inactive)

**Q.** What about the GI50 [36] of the same compound?
**A.** 1.12 µM (active)

**Q.** What about the GI50 [37] of the same compound?
**A.** 2.17 µM (inactive)

**Q.** And the GI50 [38]?
**A.** 5.22 µM (inactive)

**Q.** What about the GI50 [39] of the same compound?
**A.** 2.61 µM (inactive)

**Q.** And the GI50 [40]?
**A.** 2.23 µM (inactive)

**Q.** And the GI50 [41]?
**A.** 3.08 µM (inactive)

**Q.** What about the GI50 [42] of the same compound?
**A.** 1.87 µM (inactive)

**Q.** And the GI50 [43]?
**A.** 2.13 µM (inactive)

**Q.** And the GI50 [44]?
**A.** 1.87 µM (inactive)

**Q.** What about the GI50 [45] of the same compound?
**A.** 3.78 µM (inactive)

**Q.** And the GI50 [46]?
**A.** 3.42 µM (inactive)

**Q.** And the GI50 [47]?
**A.** 6.85 µM (inactive)

**Q.** What about the GI50 [48] of the same compound?
**A.** 4.12 µM (inactive)

**Q.** And the GI50 [49]?
**A.** 2.73 µM (inactive)

**Q.** What about the GI50 [50] of the same compound?
**A.** 1 µM (active)

**Q.** What about the GI50 [51] of the same compound?
**A.** 3.98 µM (inactive)

**Q.** What about the GI50 [52] of the same compound?
**A.** 1.65 µM (inactive)

**Q.** What about the GI50 [53] of the same compound?
**A.** 21.4 µM (inactive)

**Q.** What about the GI50 [54] of the same compound?
**A.** 2.05 µM (inactive)

**Q.** And the GI50 [55]?
**A.** 4.63 µM (inactive)

**Q.** What about the GI50 [56] of the same compound?
**A.** 1.2 µM (inactive)

**Q.** And the GI50 [57]?
**A.** 4.57 µM (inactive)

**Q.** And the GI50 [58]?
**A.** 2.17 µM (inactive)

**Q.** What about the GI50 [59] of the same compound?
**A.** 2.16 µM (inactive)

**Q.** For O=C(O)CN(CC(=O)O)C(C(=O)O)c1ccccc1 (stereo not drawn), which GI50 [1] is on record?
**A.** > 100 µM (inactive)

**Q.** What about the GI50 [2] of the same compound?
**A.** > 100 µM (inactive)

**Q.** What about the GI50 [3] of the same compound?
**A.** > 100 µM (inactive)

**Q.** And the GI50 [4]?
**A.** > 100 µM (inactive)

**Q.** And the GI50 [5]?
**A.** > 100 µM (inactive)

**Q.** What about the GI50 [6] of the same compound?
**A.** > 100 µM (inactive)

**Q.** And the GI50 [7]?
**A.** > 100 µM (inactive)

**Q.** What about the GI50 [8] of the same compound?
**A.** > 100 µM (inactive)

**Q.** What about the GI50 [9] of the same compound?
**A.** > 100 µM (inactive)

**Q.** What about the GI50 [10] of the same compound?
**A.** > 100 µM (inactive)

**Q.** What about the GI50 [11] of the same compound?
**A.** > 100 µM (inactive)

**Q.** What about the GI50 [12] of the same compound?
**A.** > 100 µM (inactive)

**Q.** What about the GI50 [13] of the same compound?
**A.** > 100 µM (inactive)

**Q.** And the GI50 [14]?
**A.** > 100 µM (inactive)

**Q.** What about the GI50 [15] of the same compound?
**A.** > 100 µM (inactive)

**Q.** What about the GI50 [16] of the same compound?
**A.** > 100 µM (inactive)

**Q.** What about the GI50 [17] of the same compound?
**A.** > 100 µM (inactive)

**Q.** And the GI50 [18]?
**A.** > 100 µM (inactive)

**Q.** What about the GI50 [19] of the same compound?
**A.** > 100 µM

**Q.** And the GI50 [20]?
**A.** > 100 µM (inactive)

**Q.** And the GI50 [21]?
**A.** > 100 µM (inactive)

**Q.** And the GI50 [22]?
**A.** > 100 µM (inactive)

**Q.** And the GI50 [23]?
**A.** > 100 µM (inactive)

**Q.** And the GI50 [24]?
**A.** > 100 µM (inactive)

**Q.** And the GI50 [25]?
**A.** > 100 µM (inactive)

**Q.** And the GI50 [26]?
**A.** > 100 µM (inactive)

**Q.** What about the GI50 [27] of the same compound?
**A.** > 100 µM (inactive)

**Q.** And the GI50 [28]?
**A.** > 100 µM (inactive)

**Q.** What about the GI50 [29] of the same compound?
**A.** > 100 µM (inactive)

**Q.** What about the GI50 [30] of the same compound?
**A.** > 100 µM (inactive)

**Q.** And the GI50 [31]?
**A.** > 100 µM (inactive)

**Q.** And the GI50 [32]?
**A.** > 100 µM (inactive)

**Q.** And the GI50 [33]?
**A.** > 100 µM (inactive)

**Q.** And the GI50 [34]?
**A.** > 100 µM (inactive)

**Q.** And the GI50 [35]?
**A.** > 100 µM (inactive)

**Q.** And the GI50 [36]?
**A.** > 100 µM (inactive)

**Q.** And the GI50 [37]?
**A.** > 100 µM (inactive)

**Q.** What about the GI50 [38] of the same compound?
**A.** > 100 µM (inactive)

**Q.** And the GI50 [39]?
**A.** > 100 µM (inactive)

**Q.** And the GI50 [40]?
**A.** > 100 µM (inactive)

**Q.** And the GI50 [41]?
**A.** > 100 µM (inactive)

**Q.** And the GI50 [42]?
**A.** > 100 µM (inactive)

**Q.** And the GI50 [43]?
**A.** > 100 µM (inactive)

**Q.** And the GI50 [44]?
**A.** > 100 µM (inactive)

**Q.** And the GI50 [45]?
**A.** > 100 µM (inactive)

**Q.** What about the GI50 [46] of the same compound?
**A.** > 100 µM (inactive)

**Q.** And the GI50 [47]?
**A.** > 100 µM (inactive)

**Q.** What about the GI50 [48] of the same compound?
**A.** > 100 µM (inactive)

**Q.** What about the GI50 [49] of the same compound?
**A.** > 100 µM (inactive)

**Q.** And the GI50 [50]?
**A.** > 100 µM (inactive)

**Q.** And the GI50 [51]?
**A.** > 100 µM (inactive)

**Q.** What about the GI50 [52] of the same compound?
**A.** > 100 µM (inactive)

**Q.** What about the GI50 [53] of the same compound?
**A.** > 100 µM (inactive)

**Q.** What about the GI50 [54] of the same compound?
**A.** > 100 µM (inactive)

**Q.** What about the GI50 [55] of the same compound?
**A.** > 100 µM (inactive)

**Q.** And the GI50 [56]?
**A.** > 100 µM (inactive)

**Q.** What about the GI50 [57] of the same compound?
**A.** > 100 µM (inactive)

**Q.** What about the GI50 [58] of the same compound?
**A.** > 100 µM (inactive)

**Q.** What about the GI50 [59] of the same compound?
**A.** > 100 µM (inactive)
